From US20260060947A1 (INSTITUT PASTEUR DE MONTEVIDEO, priority 2019, published 2026)
“Also recorded” adds a separate entry of the source.

Tests used:
[1] = Electrophilic reactivity: reaction between BANA and β-mercaptoethanol followed by UV-Visible spectra; type: physicochemical; conditions: BANA 30 μM, β-ME 300 μM, phosphate buffer 20 mM pH=7.4, scans each min up to 15 min
Method: Most electrophilic nitroalkene compounds exert their pharmacological activity via a Michael addition reaction with nucleophiles. To study the electrophilic properties of BANA, the reaction between -mercaptoethanol (BME) and BANA was studied spectrophotometrically.
The electrophilic reactivity of BANA compound was determined by analyzing the UV-Visible spectra of the reaction between BANA and β-Mercaptoethanol (β-ME). BANA (30 μM) was incubated with β-ME (300 μM) in Phosphate buffer (20 mM) pH=7.4, and scans were taken each min up to 15 min.

[2] = Cell viability / toxicity by sulforhodamine B assay; type: cell-based; conditions: mouse, BV2 microglial cells; BV2 cell culture; read-out: LC50
Method: (§1) The murine BV2 microglial cell line was used to analyze the toxicity and anti-inflammatory effects of BANA. Baseline cell viability was established in murine microglia cell line BV2 by sulforhodamine B assay. Briefly, cells were plated in a 96-multiwell plate and incubated with different concentrations of BANA (5-110 μM) for 24 h. After media removal, cells were washed twice with PBS pH=7.4. Cells were fixed with TCA for 1 hour at 4° C. and then washed five times with distilled water. 50 μL of sulforhodamine B 0.4% m/v in 1% acetic acid was added to each well and incubated 30 minutes at room temperature. After staining, the plate was washed at least five times with 1% acetic acid. Once the plate was dry the protein-bound dye was dissolved in 10 mM Tris and the absorbance at 570 nm was read using a microplate spectrophotometer (FIG. 3A).

[3] = test system: murine BV2 microglial cell line; assay: as above; type: cell-based
Method: as §1

inflammasome = assay: LPS/ATP-induced inflammasome activation in BV2 cells (western blot of IL-1β); type: cell-based, murine; conditions: treatment in second signal (ATP), compared to vehicle or sodium benzoate
Method: FIG. 3B: For inflammasome activation, BV2 cells were treated with LPS and ATP. BANA or B.A treatment was performed in second signal (ATP). Presence of pro-IL1β in cell lysates (CL) and cleaved IL-1β in supernatants (SN) was determined by western blot analysis. […] All data are expressed as mean±SEM.

NLRP3 inflammasome = assay: Inflammasome activation in THP-1 cells (LPS and ATP), IL-1β ELISA; type: cell-based, Human; conditions: 30 μM, in first or second signal (LPS and ATP), compared with vehicle
Method: The effect of BANA or BA over NF-κB-dependent gene expression was studied by qPCR using THP-1 cells. THP-1 cells were differentiated into macrophages and treated with BANA (30 μM) or BA (30 μM) for 2 hs, followed by stimulation with LPS (100 ng/mL, for 3-4 h).
For inflammasome activation, THP-1 cells were treated with LPS (as above) followed by exposure to ATP (5 mM, 45 min). IL-1β in the supernatant was then measured by ELISA (B&D OptEIA TM, San Diego, CA, USA).

NF-κB = assay: LPS-induced NF-κB activation in NF-κB-RE-Luc reporter mouse; type: in vivo; conditions: intraperitoneal, 2 h before LPS; BANA 10, 20 and 30 mg/kg; BA 30 mg/kg; DMF 30 mg/kg
Method: To determine whether BANA was capable of preventing LPS-induced NF-κB activation, intraperitoneal administration of BANA (10, 20, and 30 mg/kg) were followed by LPS intraperitoneal administration to an NF-κB-reporter transgenic mouse.

IL-1β = IL-1β in peritoneum and plasma of LPS-injected mice (ELISA); type: in vivo; conditions: 50 mg/kg IP 1 h before LPS 10 mg/kg, measured 3 h later, compared to vehicle and BA
Method: BANA (50 mg/kg), BA (50 mg/kg) or vehicle, were intraperitoneally (IP) injected 1 h before LPS intraperitoneal administration (10 mg/kg). 3 h later, IL-1β levels were measured in the peritoneum and plasma by ELISA.
In turn, BANA was able to reduce IL-1β concentration in plasma and peritoneum of mice intraperitoneally injected with LPS respect to controls (FIGS. 8A-1 and 8A-2). BANA (50 mg/kg), BA (50 mg/kg) or vehicle, were intraperitoneally (IP) injected 1 h before LPS intraperitoneal administration (10 mg/kg). 3 h later, IL-1β levels were measured in the peritoneum and plasma by ELISA. […] All data are expressed as mean±SEM; data were analyzed by Ordinary one-way ANOVA followed by Tukey's multiple comparisons test, ***p=0.0002 ****p<0,0001. n=3 animals per condition.

SOD1^G93A rats = assay: Neuromuscular junction innervation analysis in whole mounted EDL muscle; type: in vivo, rat; conditions: 100 mg/kg/day post-paralysis; vs vehicle
Method: Extensor digitorium longus (EDL) muscles from the NonTg and SOD1^G93A hind limbs were dissected. Then, tissues were blocked for 2 h at room temperature (BSA 5% v/v, Triton X-100 0.8% v/v in PBS pH=7.4), incubated with primary antibodies or fluorescent probes at 4° C. overnight: axon and post-synaptic plates were carried out using 1:1000 rabbit anti-heavy chain neurofilament-Alexa Fluor 555 (Millipore, #MAB5256A5) and fluorescently labeled a-bungarotoxin-FITC [αBTX, (Thermo Fisher Scientific, B13422)], axon presynaptic terminals were labeled with 1:300 rabbit anti-synaptophysin-Alexa Fluor 555 (Abcam, #ab206870). After washing 4 times with PBS, whole-mount muscles were mounted using DPX. Structural changes of the neuromuscular junction were scored using maximum-intensity projections of images acquired from whole-mounted muscles. Neuromuscular junction innervation analysis was performed taking into consideration those postsynaptic motor endplates occupied by a presynaptic axon terminal, where full innervation was defined as at least 80% of overlapping between pre- and postsynaptic. An average of 100 neuromuscular junctions per animal was analyzed using the ImageJ software.

O=C(O)c1ccc(/C=C/[N+](=O)[O-])cc1 [BANA, (E)-4-(2-nitrovinyl) benzoic acid]
reaction with β-mercaptoethanol (UV-Visible absorbance) [1]: react with 3-ME, resulting in a decreased in absorbance | CC50 at 24 h [2]: 50 µM | IC50 ([3]; Mus musculus, BV-2, BV2 cells, BANA 5-110 μM, 24 h, sulforhodamine B): 51.7 µM | toxicity to BV2 microglia ([3]; low micromolar concentrations): devoid of toxicity | LPS/ATP-induced inflammasome activation (release of IL-1β adjusted to pro-IL-1β) (inflammasome): inhibited | release of IL-1β (NLRP3 inflammasome): almost completely prevented | LPS-induced NF-κB activation in vivo (NF-κB): significantly decreased; also recorded: significantly inhibited | IL-1β concentration in plasma (IL-1β): significantly reduces | IL-1β concentration in the peritoneum (IL-1β): significantly reduces | motor endplate denervation in the EDL muscle (SOD1^G93A rats): significantly reduced
